Data from patent US4339442A, “Gynosaponins, their use and a process for preparing the same” (priority 1980, dated 1982).

Tests used:
Type in all cases: cell-based, male wister rats
fat cells [1] = test: Synthesis of fat from glucose in fat cells; details: 20 μg/ml; for Power for synthesis of neutral fat from glucose: 37° C., half an hour; for Rate of promotion / activation at 20 µg/mL: none = 100; for activation at 20 µg/mL: Rattus norvegicus, 0.5 h, read-out: Rate of promotion
Method: (§1) Fat tissues were separated from the epididymides of male wister rats weighing 150 to 180 g each, and fat cells were obtained therefrom in accordance with the Rodbell's method [M. Rodbell, J. Biol. Chem., 239, 375 (1964)]. A small section was prepared from 4 g of the fat tissue, and placed in 10 ml. of Krebs-Ringer bicarbonate buffer containing 0.4 g of albumin, 10 mg of collagenase and 5 mg of glucose, and having a pH value of 7.4. It was heated at 37° C. for 50 minutes, and subjected to centrifugal separation at 300 rpm, whereby a floating fat cell layer was separated. Added into the fat cell were 10 ml. of the aforesaid buffer (pH 7.4), and the solution was carefully stirred to wash the fat cell, followed by centrifugal separation at 300 rpm for 30 seconds. This procedure was repeated twice, whereby the fat cells were washed perfectly, and these fat cells were used for the tests.
^14 C-glucose having its carbon atoms marked with radioactivity was reacted upon fat cells, and a Geiger count was read to determine the amount of the glucose participating in the fat synthesis and incorporated into the fat cells as a neutral fat, whereby gynosaponins were tested for their effects on the power of the glucose for fat synthesis.
More specifically, the fat cells obtained by treating with collagenase were suspended in KRB, and 0.35 ml. of the resulting solution containing 100 mg of fat cells was placed into a test tube with 0.1 ml. of each saponin solution containing 20 μg of saponin, 0.5 ml. of a 5% albumin solution in KRB, containing 10 mM glucose and having a pH value of 7.4, and 0.05 ml. of a ^14 C-glucose solution which was a 0.5 μCi KRP solution having a pH value of 7.4 and containing 10 mM glucose. They were heated at 37° C. for half an hour, and after 5 ml. of Dole's extract were added and the whole was shaked for five minutes, 3 ml. of heptane and 2 ml. of water were added, and the whole was shaked for five minutes. 3 ml. of a heptane layer were separated, and after an alkaline ethanol solution (0.5 N sodium hydroxide solution, 50 % ethanol solution) was added in the amount of 3 ml., the whole was shaked for five minutes. Then, 1 ml. of an ethanol layer was separated, and 10 ml. of a toluene scintillation solution were added thereinto, followed by determination according to the method of Skipski et al. [Biochem. Biophys. Acta, 106, 386 (1965)].

fat cells [2] = test: Decomposition by adrenalin of the fat in the fat cells; details: adrenalin 1 μg/ml + saponin 20 μg/ml, 37° C., two hours; for inhibition at 20 µg/mL: Rattus norvegicus, 2 h, read-out: Rate of inhibition
Method: A small section was prepared from 4 g of the fat tissue, and placed in 10 ml. of Krebs-Ringer bicarbonate buffer containing 0.4 g of albumin, 10 mg of collagenase and 5 mg of glucose, and having a pH value of 7.4. […] Added into the fat cell were 10 ml. of the aforesaid buffer (pH 7.4), and the solution was carefully stirred to wash the fat cell, followed by centrifugal separation at 300 rpm for 30 seconds. This procedure was repeated twice, whereby the fat cells were washed perfectly, and these fat cells were used for the tests.
The fat cells obtained by treating with collagenase were suspended in Krebs-Ringer phosphate buffer (KRP) having a pH value of 7.4. Placed into a test tube were 0.3 ml. of the solution thus obtained, and containing 100 mg of fat cells, 0.1 ml. of an adrenalin solution containing 1 μg of adrenalin, 0.1 ml. of a saponin solution containing 20 μg of saponin, and 0.5 ml. of a 5% albumin solution in KRP, and having a pH value adjusted to 7.4. […] More specifically, 3 ml. of Dole's extract were placed in the reaction system, and after they were shaked for five minutes, 3 ml. of heptane were dispensed, and 1 ml. of a thymol blue solution was added thereinto. The resulting solution was titrated with a 0.008 N aqueous solution of sodium hydroxide, while it was being stirred with nitrogen, and the amount of the resulting free fatty acid was determined in accordance with a calibration curve.
The rate of inhibition was obtained in accordance with the equation shown at (1) above.

fat cells [3] = test: Decomposition of the fat in the fat cell by ACTH; details: 37° C., two hours; for inhibition at 20 µg/mL: Rattus norvegicus, 2 h, read-out: Rate of inhibition
Method: as §1
The fat cells obtained by treating with collagenase were suspended in Krebs-Ringer bicarbonate buffer (KRB) having a pH value of 7.4. Placed into a test tube were 0.3 ml. of the solution thus obtained (containing 100 mg of fat cells), 0.1 ml. of ACTH solution containing 1 μg of ACTH, 0.1 ml. of each saponin solution containing 500 μg of saponin, and 0.3 ml. of a 5% alubumin solution in KRB, and having a pH value adjusted to 7.4. They were heated at 37° C. for two hours, and the amount of the resulting free fatty acid was determined in accordance with the Dole's method [V. P. Dole, J. Biol. Chem., 35, 150 (1958)].
Namely, 3 ml. of Dole's extract were separated into the reaction system, and 1 ml. of a thymol blue solution was added thereinto. Nitrogen was blown into the resulting solution, and the solution was titrated with a 0.008 N aqueous solution of sodium hydroxide, while it was being stirred. The amount of the resulting free fatty acid was determined in accordance with a calibration curve.
The rate of inhibition against fat decomposition was obtained in accordance with the following equation: [formula] wherein A stands for the amount of the free fatty acid formed by addition of ACTH along in the amount of 1 μg/ml.; and B stands for the amount of the free fatty acid formed by addition of ACTH and saponin in the amount of 1 μg/ml. and 20 μg/ml., respectively.

[4] = ACTH 1 μg/ml + saponin 20 μg/ml

20S,26-Hydroxyprotopanaxadiol-3-O-{[β-D-glucopyranosyl (1→2)-α-L-rhamnopyranosyl (1→6)]-β-D-glucopyranoside}-20-O-[α-L-rhamnopyranosyl (1→6)-β-D-glucopyranoside] [gynosaponin O]
Power for synthesis of neutral fat from glucose (fat cells [1]): 8,263 cpm/g | Rate of promotion (fat cells [1]): 38% | Free fatty acid formed by decomposition of fat (fat cells [2]): 13.9 μ Eq/g | Rate of inhibition (fat cells [2]): 1% | Free fatty acid formed by decomposition of fat (fat cells [3]; [4]): 5.6 μ Eq/g | Rate of inhibition (fat cells [3]; [4]): 33%

20S,26-Hydroxyprotopanaxadiol-3-O-{[β-D-glucopyranosyl (1→2)-α-L-rhamnopyranosyl (1→6)]-β-D-glucopyranoside}-20-O-[β-D-glucopyranosyl (1→6)-β-D-glucopyranoside] [gynosaponin T]
Power for synthesis of neutral fat from glucose (fat cells [1]): 11,150 cpm/g | Rate of promotion (fat cells [1]): 52% | Free fatty acid formed by decomposition of fat (fat cells [2]): 13.1 μ Eq/g | Rate of inhibition (fat cells [2]): 7% | Free fatty acid formed by decomposition of fat (fat cells [3]; [4]): 6.3 μ Eq/g | Rate of inhibition (fat cells [3]; [4]): 25%

20S-Protopanaxadiol-3-O-{[β-D-glucopyranosyl (1→2)-α-L-rhamnopyranosyl (1→6)]-β-D-glucopyranoside} [progynosapogenin A--AH]
Power for synthesis of neutral fat from glucose (fat cells [1]): 10,550 cpm/g | Rate of promotion (fat cells [1]): 49% | Free fatty acid formed by decomposition of fat (fat cells [2]): 12.4 μ Eq/g | Rate of inhibition (fat cells [2]): 12% | Free fatty acid formed by decomposition of fat (fat cells [3]; [4]): 6.3 μ Eq/g | Rate of inhibition (fat cells [3]; [4]): 25%

20S-Protopanaxadiol-3-O-{[β-D-glucopyranosyl (1→2)-α-L-rhamnopyranosyl (1→6)]-β-D-glucopyranoside}-20-O-[α-L-rhamnopyranosyl (1→6)-β-D-glucopyranoside] [gynosaponin B]
Power for synthesis of neutral fat from glucose (fat cells [1]): 12,308 cpm/g | Rate of promotion (fat cells [1]): 57% | Free fatty acid formed by decomposition of fat (fat cells [2]): 9.1 μ Eq/g | Rate of inhibition (fat cells [2]): 35% | Free fatty acid formed by decomposition of fat (fat cells [3]; [4]): 6.9 μ Eq/g | Rate of inhibition (fat cells [3]; [4]): 18%

20S-Protopanaxadiol-3-O-{[β-D-glucopyranosyl (1→2)-α-L-rhamnopyranosyl (1→6)]-β-D-glucopyranoside}-20-O-[β-D-glucopyranosyl (1→6)-β-D-glucopyranoside] [gynosaponin A]
Power for synthesis of neutral fat from glucose (fat cells [1]): 8,013 cpm/g | Rate of promotion (fat cells [1]): 37% | Free fatty acid formed by decomposition of fat (fat cells [2]): 13.4 μ Eq/g | Rate of inhibition (fat cells [2]): 5% | Free fatty acid formed by decomposition of fat (fat cells [3]; [4]): 6.1 μ Eq/g | Rate of inhibition (fat cells [3]; [4]): 27%

20S-Protopanaxadiol-3-O-{[β-D-glucopyranosyl (1→2)-α-L-rhamnopyranosyl (1→6)]-β-D-glucopyranoside}-20-O-β-D-glucopyranoside [gynosaponin F]
Power for synthesis of neutral fat from glucose (fat cells [1]): 11,620 cpm/g | Rate of promotion (fat cells [1]): 54% | Free fatty acid formed by decomposition of fat (fat cells [2]): 13.4 μ Eq/g | Rate of inhibition (fat cells [2]): 5% | Free fatty acid formed by decomposition of fat (fat cells [3]; [4]): 6.3 μ Eq/g | Rate of inhibition (fat cells [3]; [4]): 25%

CC(C)=CCC[C@](C)(O[C@@H]1O[C@H](CO[C@@H]2O[C@@H](C)[C@H](O)[C@@H](O)[C@H]2O)[C@@H](O)[C@H](O)[C@H]1O)[C@H]1CC[C@]2(C)[C@@H]1[C@H](O)C[C@@H]1[C@@]3(C)CC[C@H](O[C@@H]4O[C@H](CO)[C@@H](O)[C@H](O)[C@H]4O[C@@H]4O[C@H](CO)[C@@H](O)[C@H](O)[C@H]4O)C(C)(C)[C@@H]3CC[C@]12C [gynosaponin E, 20S-Protopanaxadiol-3-O-[β-D-glucopyranosyl (1→2)-β-D-glucopyranoside]-20-O-[α-L-rhamnopyranosyl (1→6)-β-D-glucopyranoside]]
Power for synthesis of neutral fat from glucose (fat cells [1]): 10,248 cpm/g | activation at 20 µg/mL (fat cells [1]): 48% | inhibition at 20 µg/mL (fat cells [2]): 33% | Free fatty acid formed by decomposition of fat (fat cells [2]): 9.4 μ Eq/g | Free fatty acid formed by decomposition of fat (fat cells [3]; [4]): 5.9 μ Eq/g | inhibition at 20 µg/mL (fat cells [3]; [4]): 30%

CC(C)=CCC[C@](C)(O[C@@H]1O[C@H](CO[C@@H]2O[C@@H](C)[C@H](O)[C@@H](O)[C@H]2O)[C@@H](O)[C@H](O)[C@H]1O)[C@H]1CC[C@]2(C)[C@@H]1[C@H](O)C[C@@H]1[C@@]3(C)CC[C@H](O[C@@H]4O[C@H](CO[C@@H]5O[C@@H](C)[C@H](O)[C@@H](O)[C@H]5O)[C@@H](O)[C@H](O)[C@H]4O)C(C)(C)[C@@H]3CC[C@]12C [gynosaponin G, 20S-Protopanaxadiol-3,20-bis-O-[α-L-rhamnopyranosyl (1→6)-β-D-glucopyranoside]]
Power for synthesis of neutral fat from glucose (fat cells [1]): 8,925 cpm/g | activation at 20 µg/mL (fat cells [1]): 42% | inhibition at 20 µg/mL (fat cells [2]): 2% | Free fatty acid formed by decomposition of fat (fat cells [2]): 13.8 μ Eq/g | Free fatty acid formed by decomposition of fat (fat cells [3]; [4]): 5.8 μ Eq/g | inhibition at 20 µg/mL (fat cells [3]; [4]): 31%

CC(C)=CCC[C@](C)(O[C@@H]1O[C@H](CO[C@@H]2OC[C@@H](O)[C@H](O)[C@H]2O)[C@@H](O)[C@H](O)[C@H]1O)[C@H]1CC[C@]2(C)[C@@H]1[C@H](O)C[C@@H]1[C@@]3(C)CC[C@H](O[C@@H]4O[C@H](CO)[C@@H](O)[C@H](O)[C@H]4O)C(C)(C)[C@@H]3CC[C@]12C [gynosaponin I, 20S-Protopanaxadiol-3-O-β-D-glucopyranoside-20-O-[β-D-xylopyranosyl (1→6)-β-D-glucopyranoside]]
Power for synthesis of neutral fat from glucose (fat cells [1]): 10,564 cpm/g | activation at 20 µg/mL (fat cells [1]): 49% | inhibition at 20 µg/mL (fat cells [2]): 10% | Free fatty acid formed by decomposition of fat (fat cells [2]): 12.7 μ Eq/g | Free fatty acid formed by decomposition of fat (fat cells [3]; [4]): 6.6 μ Eq/g | inhibition at 20 µg/mL (fat cells [3]; [4]): 21%

ACTH: ACTH, used at 1 μg/ml to decompose fat in fat cells (SYSMEHFRWGKPVGKKRRPVKVYPNGAEDESAEAFPLEF; Corticotropin; UniProt P01189 138-176, looked up) [reference compound]
Free fatty acid formed by decomposition of fat (fat cells [3]; ACTH alone, 1 μg/ml): 8.4 μ Eq/g
